Measured values as given in patent US8519007B2, “Use certain diterpene compounds in the treatment of androgen receptor-associated diseases” (Academia Sinica, priority 2008, dated 2013).
One block for each compound: values may come before it.

Assays:
LNCaP cells = assay: Cell cycle distribution by propidium iodide flow cytometry; assay type: cell-based, human; conditions: 48 h
Description: (§1) The cell cycle of treated cells was examined by flow cytometry after cellular staining with propidium iodide. 5×10^5 cells were seeded into 6-well multidishes with 10% FBS culture medium for 48 h. […] Cells were trypsinized thereafter, washed twice with cold PBS, and centrifuged. The pellet was suspended in cold PBS and 1 mL of 70% ethanol at 4° C. overnight, washed twice with cold PBS, and digested with RNase (100 μg/mL final concentration) and stained with propidium iodide (10 μg/mL final concentration) for 30 min and analyzed by flow cytometry (EPICS XL-MCL, Beckman Coulter, Inc., Fullerton, Calif.).

22Rv1 cells = assay: as above; assay type: cell-based, human; conditions: 48 h
Description: as §1

PC-3 cells = assay: as above; assay type: cell-based, human; conditions: 48 h
Description: as §1

androgen receptor = biological target: T1, androgen receptor (Homo sapiens, UniProt P10275); assay: PSA promoter luciferase reporter assay in 103E cells (AR transcriptional activity); conditions: for inhibition of AR activity: 50 μM, 20 h; for IC50: read-out: IC50 of AR activity, 20 h, luciferase
T1 sequence (P10275 with tags, fused parts or gaps DUP590-628/H875Y): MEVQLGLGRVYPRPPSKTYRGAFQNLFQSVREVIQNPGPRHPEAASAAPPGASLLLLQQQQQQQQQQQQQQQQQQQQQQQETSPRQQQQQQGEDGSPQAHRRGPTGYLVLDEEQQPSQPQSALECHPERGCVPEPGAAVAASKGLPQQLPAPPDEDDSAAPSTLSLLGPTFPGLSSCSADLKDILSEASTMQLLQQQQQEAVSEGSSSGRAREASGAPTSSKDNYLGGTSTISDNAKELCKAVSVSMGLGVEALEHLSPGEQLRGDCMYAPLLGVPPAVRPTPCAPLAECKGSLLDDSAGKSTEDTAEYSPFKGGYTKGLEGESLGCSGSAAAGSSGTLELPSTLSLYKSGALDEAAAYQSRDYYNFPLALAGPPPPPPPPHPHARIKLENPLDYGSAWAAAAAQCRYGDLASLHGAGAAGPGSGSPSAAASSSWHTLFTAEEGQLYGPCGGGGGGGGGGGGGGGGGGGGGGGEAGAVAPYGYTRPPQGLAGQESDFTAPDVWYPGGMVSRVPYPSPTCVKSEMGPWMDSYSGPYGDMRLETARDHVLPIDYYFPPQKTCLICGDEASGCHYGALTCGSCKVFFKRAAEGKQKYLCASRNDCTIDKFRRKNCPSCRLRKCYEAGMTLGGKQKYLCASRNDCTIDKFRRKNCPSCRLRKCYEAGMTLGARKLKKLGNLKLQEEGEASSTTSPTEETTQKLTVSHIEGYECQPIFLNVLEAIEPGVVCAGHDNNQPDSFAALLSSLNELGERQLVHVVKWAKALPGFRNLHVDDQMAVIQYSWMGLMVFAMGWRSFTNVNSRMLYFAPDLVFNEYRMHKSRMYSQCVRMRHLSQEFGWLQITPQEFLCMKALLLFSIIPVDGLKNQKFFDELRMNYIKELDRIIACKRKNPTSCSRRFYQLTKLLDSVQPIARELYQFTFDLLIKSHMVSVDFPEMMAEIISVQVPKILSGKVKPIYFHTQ
Description: PC-3 and NIH-3T3 were cultured in DMEM (Hyclone) supplemented with 10% FBS. Cultures were maintained in a humidified incubator at 37° C. in 5% CO2/air.
Cells were treated with various compounds for a period of 20 h and luciferase activity was measured using a luciferase reporter gene assay system (Promega).

SMILES: CC(O)(CS(=O)(=O)c1ccc(F)cc1)C(=O)Nc1ccc(C#N)c(C(F)(F)F)c1 (centres unmarked) [CASODEX, bicalutamide, reference compound]
- G0-G1 phase cell population (LNCaP cells; 1 μM): 62.1 ± 3.5 %
- G2-M phase cell population (LNCaP cells; 1 μM): 21.8 ± 2.0 %
- S phase cell population (LNCaP cells; 1 μM): 10.1 ± 1.7 %
- Sub-G1 phase cell population (LNCaP cells; 1 μM): 1.0 ± 0.5 %
- G0-G1 phase cell population (LNCaP cells; 10 μM): 61.3 ± 3.4 %
- G2-M phase cell population (LNCaP cells; 10 μM): 22.3 ± 1.7 %
- S phase cell population (LNCaP cells; 10 μM): 10.4 ± 1.5 %
- Sub-G1 phase cell population (LNCaP cells; 10 μM): 1.3 ± 0.8 %
- G0-G1 phase cell population (22Rv1 cells; 22Rv1, 1 μM): 53.5 ± 2.6 %
- G2-M phase cell population (22Rv1 cells; 22Rv1, 1 μM): 25.0 ± 1.6 %
- S phase cell population (22Rv1 cells; 22Rv1, 1 μM): 13.5 ± 2.3 %
- Sub-G1 phase cell population (22Rv1 cells; 22Rv1, 1 μM): 1.5 ± 1.1 %
- G0-G1 phase cell population (22Rv1 cells; 22Rv1, 10 μM): 53.0 ± 3.2 %
- G2-M phase cell population (22Rv1 cells; 22Rv1, 10 μM): 25.4 ± 1.0 %
- S phase cell population (22Rv1 cells; 22Rv1, 10 μM): 12.2 ± 1.8 %
- Sub-G1 phase cell population (22Rv1 cells; 22Rv1, 10 μM): 2.3 ± 1.8 %
- G0-G1 phase cell population (PC-3 cells; PC-3, 1 μM): 51.1 ± 3.6 %
- G2-M phase cell population (PC-3 cells; PC-3, 1 μM): 24.4 ± 2.5 %
- S phase cell population (PC-3 cells; PC-3, 1 μM): 18.5 ± 2.1 %
- Sub-G1 phase cell population (PC-3 cells; PC-3, 1 μM): 2.3 ± 1.5 %
- G0-G1 phase cell population (PC-3 cells; PC-3, 10 μM): 51.0 ± 2.1 %
- G2-M phase cell population (PC-3 cells; PC-3, 10 μM): 25.2 ± 2.1 %
- S phase cell population (PC-3 cells; PC-3, 10 μM): 19.0 ± 1.3 %
- Sub-G1 phase cell population (PC-3 cells; PC-3, 10 μM): 1.8 ± 1.4 %

SMILES: COc1c(C(C)C)cc2c(c1O)[C@@]1(C)CCCC(C)(C)[C@@H]1CC2=O [Compound 1]
- inhibition of AR activity (androgen receptor): approximately 70%
- Inhibitionmax (%) of AR activity (androgen receptor; maximal inhibition at 50 μM): 77 ± 2% (50 μM)
- IC50 (androgen receptor): 8.62 µM

SMILES: CC(C)c1cc2c(cc1O)[C@@]1(C)CCCC(C)(C)[C@@H]1CC2=O [Compound 3]
- Inhibitionmax (%) of AR activity (androgen receptor; maximal inhibition at 25 μM): 100 ± 1% (25 μM)
- IC50 (androgen receptor): 2.64 µM

SMILES: CC(C)c1cc2c(cc1O)[C@@]1(C)CCCC(C)(C)[C@@H]1CC2 [Compound 4]
- Inhibitionmax (%) of AR activity (androgen receptor; maximal inhibition at 25 μM): 100 ± 1% (25 μM)
- IC50 (androgen receptor): 12 µM

SMILES: CC(C)c1cc2c(cc1O)[C@@]1(C)CCCC(C)(C)[C@H]1OC2=O [Compound 5]
- inhibition of AR activity (androgen receptor): less than 20%
- Inhibitionmax (%) of AR activity (androgen receptor; maximal inhibition at 50 μM): 19 ± 6% (50 μM)

- inhibition of AR activity (androgen receptor): approximately 70%
- Inhibitionmax (%) of AR activity (androgen receptor; maximal inhibition at 50 μM): 68 ± 6% (50 μM)
- IC50 (androgen receptor): 17.6 µM
SMILES: CC(C)C1=C[C@]2(O)CC[C@H]3C(C)(C)CCC[C@]3(C)C2=CC1=O [Compound 6]

SMILES: CC(C)c1cc2c(cc1O)[C@@]1(C)CCCC(C)(C)[C@@H]1C(=O)C2=O [Compound 7]
- Inhibitionmax (%) of AR activity (androgen receptor; maximal inhibition at 25 μM): 100 ± 1% (25 μM)
- IC50 (androgen receptor): 12.9 µM

- inhibition of AR activity (androgen receptor): 87%
- Inhibitionmax (%) of AR activity (androgen receptor; maximal inhibition at 50 μM): 87 ± 3% (50 μM)
- IC50 (androgen receptor): 22.7 µM
SMILES: C=C1CC[C@@H]2[C@](C)(CCC[C@]2(C)C(=O)O)[C@H]1CC/C(C)=C/CO [Compound 8, isocupressic acid]
